Measured values as given in patent US12065430B2, “Indazole compound or salt thereof” (TAIHO PHARMACEUTICAL CO., LTD., priority 2018, dated 2024).

Target: G12C K-Ras4B (1-169) (Homo sapiens (Human), UniProt P01116, G12C)
Experiment: Test of compounds on whether to bind to KRASG12C (LC-MS compound binding rate)
Conditions: final compound concentration of 2 μM, 1 μM protein, 25° C. for 2 hours
Protocol: Test compounds were prepared in the form of a 10 mM DMSO solution.
K-Ras4B (1-169) and G12C K-Ras4B (1-169) proteins were mixed and diluted with a buffer (1×TBS, 0.1 mM TCEP) to prepare individual 1 μM protein solutions. A 10 mM test compound was diluted tenfold with DMSO to make a 1 mM solution, and then diluted fivefold with DMSO to make a 200 μM solution. The 200 μM solution was further diluted fivefold to make a 40 μM solution. When the final compound concentration was 10 μM, 1 μL of a 200 μM test compound was added to 19 μL of a 1 μM protein solution. When the final compound concentration was 2 μM, 1 μL of a 40 μM test compound was added to 19 μL of a 1 μM protein solution. The mixtures were stored in an incubator at 25° C. for 2 hours, and 80 μL of a 1×TBS solution containing 0.2% formic acid was added thereto to end the reaction, followed by LC-MS measurement. LC-MS measurement was performed using Xevo G2-S Q-Tof manufactured by Waters, and reverse-phase chromatography was performed with a desalting column. A mass spectrum of positive ions was obtained by electrospray. For a mass spectrum, a spectrum of a polyvalent ion was collectively converted to a molecular weight by using OpenLynx software by the MaxEnt technique, and a compound binding rate was obtained from the ratio of a signal intensity that corresponds to the molecular weight of a protein to a signal intensity that corresponds to the molecular weight of a compound binding to the protein.
By obtaining the compound binding rate for K-Ras4B (1-169) and the compound binding rate for G12C K-Ras4B (1-169) at the same time, information of the selectivity for G12C K-Ras4B (1-169) was obtained at the same time.
The test compounds were measured at their final compound concentration of 2 μM. […] Almost no compounds of the present invention binded to K-Ras4B (1-169). The “binding rate” (%) for each of K-Ras4B (1-169) and G12C K-Ras4B (1-169) refers to the ratio of the signal intensity of binded forms to the sum of the signal intensity of non-binded forms and the signal intensity of binded forms.

Structure (SMILES) | binding rate for G12C K-Ras4B (1-169)
C=CC(=O)N1CC(NC(=O)c2c(-c3ccccc3)nc(CNc3n[nH]c4cc(Cl)c(C(C)(C)C)cc34)n2C)C1 [Reference Example 3, N-(1-acryloylazetidin-3-yl)-2-(((5-(tert-butyl)-6-chloro-1H-indazol-3-yl)amino)methyl)-1-methyl-4-phenyl-1H-imidazole-5-carboxamide, reference compound] | E (a binding rate of less than 20% is rated “E.”)
C=CC(=O)N1CC(NC(=O)c2c(Cl)nc(CNc3n[nH]c4cc(Cl)c(C(C)(C)C)cc34)n2C2CC=CC2)C1 [Example 98, N-(1-acryloylazetidin-3-yl)-2-(((5-(tert-butyl)-6-chloro-1H-indazol-3-yl)amino)methyl)-4-chloro-1-(cyclopent-3-en-1-yl)-1H-imidazole-5-carboxamide] | A (a binding rate of 80% or more is rated “A,”)
C=CC(=O)N1C[C@@H](O)[C@@H](NC(=O)c2c(C)nc(CNc3n[nH]c4cc(Cl)c(C(C)(C)C)cc34)n2C)C1 [Example 56, N-((3S,4R)-1-acryloyl-4-hydroxypyrrolidin-3-yl)-2-(((5-(tert-butyl)-6-chloro-1H-indazol-3-yl)amino)methyl)-1,4-dimethyl-1H-imidazole-5-carboxamide] | C (a binding rate of 40% or more and less than 60% is rated “C,”)
C=CC(=O)N1CC(NC(=O)c2c(Cl)nc(CNc3n[nH]c4cc(Cl)c(C(C)(C)C)cc34)n2C2CCCN(CC(F)F)C2)C1 (stereo not shown) [Example 117, N-(1-acryloylazetidin-3-yl)-2-(((5-(tert-butyl)-6-chloro-1H-indazol-3-yl)amino)methyl)-4-chloro-1-(1-(2,2-difluoroethyl)piperidin-3-yl)-1H-imidazole-5-carboxamide] | A (a binding rate of 80% or more is rated “A,”)
C=CC(=O)N1CC(NC(=O)c2c(Cl)nc(CNc3n[nH]c4cc(Cl)c(C(C)(C)C)cc34)n2CC2CCCC2)C1 [Example 110, N-(1-acryloylazetidin-3-yl)-2-(((5-(tert-butyl)-6-chloro-1H-indazol-3-yl)amino)methyl)-4-chloro-1-(cyclopentylmethyl)-1H-imidazole-5-carboxamide] | A (a binding rate of 80% or more is rated “A,”)
CC#CC(=O)N1CC(NC(=O)c2c(C)nc(CNc3n[nH]c4cc(Cl)c(C(C)(C)C)cc34)n2C(C)C)C1 [Example 82, N-(1-(buty-2-noyl)azetidin-3-yl)-2-(((5-(tert-butyl)-6-chloro-1H-indazol-3-yl)amino)methyl)-1-isopropyl-4-methyl-1H-imidazole-5-carboxamide] | D (a binding rate of 20% or more and less than 40% is rated “D,”)
C=CC(=O)N1CC(NC(=O)c2c(C(F)F)nc(CNc3n[nH]c4cc(Cl)c(C(C)(C)C)cc34)n2CC2CCCN2C(C)C)C1 (stereo not shown) [Example 95, N-(1-acryloylazetidin-3-yl)-2-(((5-(tert-butyl)-6-chloro-1H-indazol-3-yl)amino)methyl)-4-(difluoromethyl)-1-((1-isopropylpyrrolidine-2-yl)methyl)-1H-imidazole-5-carboxamide] | A (a binding rate of 80% or more is rated “A,”)
C=CC(=O)N1CC(NC(=O)c2c(C)nc(CNc3n[nH]c4cc(C)c(C(C)(C)C)cc34)n2C)C1 [Example 41, N-(1-acryloylazetidin-3-yl)-2-(((5-(tert-butyl)-6-methyl-1H-indazol-3-yl)amino)methyl)-1,4-dimethyl-1H-imidazole-5-carboxamide] | A (a binding rate of 80% or more is rated “A,”)
Cc1nc(CNc2n[nH]c3cc(Cl)c(C(C)(C)C)cc23)n(C(C)C)c1C(=O)NC1CN(C(=O)/C=C\Cl)C1 [Example 83, (Z)-2-(((5-(tert-butyl)-6-chloro-1H-indazol-3-yl)amino)methyl)-N-(1-(3-chloroacryloyl)azetidin-3-yl)-1-isopropyl-4-methyl-1H-imidazole-5-carboxamide] | D (a binding rate of 20% or more and less than 40% is rated “D,”)
C=CC(=O)N1CC(NC(=O)c2cc(CNc3n[nH]c4cc(Cl)c(C(C)(C)C)cc34)nn2C)C1 [Example 9, N-(1-acryloylazetidin-3-yl)-3-(((5-(tert-butyl)-6-chloro-1H-indazol-3-yl)amino)methyl)-1-methyl-1H-pyrazole-5-carboxamide] | D (a binding rate of 20% or more and less than 40% is rated “D,”)
Cc1nc(CNc2n[nH]c3cc(Cl)c(C(C)(C)C)cc23)n(C)c1C(=O)NC1CN(C(=O)/C=C/CN(C)C)C1 [Example 80, (E)-2-(((5-(tert-butyl)-6-chloro-1H-indazol-3-yl)amino)methyl)-N-(1-(4-(dimethylamino)but-2-enoyl)azetidin-3-yl)-1,4-dimethyl-1H-imidazole-5-carboxamide] | C (a binding rate of 40% or more and less than 60% is rated “C,”)
C=CC(=O)N1CC(NC(=O)c2c(Cl)nc(CNc3n[nH]c4cc(Cl)c(C(C)(C)C)cc34)n2[C@H]2C[C@H](C)CC[C@H]2C(C)C)C1 [Example 111, N-(1-acryloylazetidin-3-yl)-2-(((5-(tert-butyl)-6-chloro-1H-indazol-3-yl)amino)methyl)-4-chloro-1-((1S,2S,5R)-2-isopropyl-5-methylcyclohexyl)-1H-imidazole-5-carboxamide] | B (a binding rate of 60% or more and less than 80% is rated “B,”)
C=CC(=O)N1CC(NC(=O)c2c(C)nc(CNc3n[nH]c4cc(Cl)c(C(C)(C)C)cc34)n2C(F)F)C1 [Example 21, N-(1-acryloylazetidin-3-yl)-2-(((5-(tert-butyl)-6-chloro-1H-indazol-3-yl)amino)methyl)-1-(difluoromethyl)-4-methyl-1H-imidazole-5-carboxamide] | B (a binding rate of 60% or more and less than 80% is rated “B,”)
C=CC(=O)N1CC(NC(=O)c2c(Cl)nc(CNc3n[nH]c4cc(Cl)c(C(C)(C)C)cc34)n2[C@@H]2CCN(Cc3ccccc3)C2)C1 [Example 122, (R)—N-(1-acryloylazetidin-3-yl)-1-(1-benzylpyrrolidin-3-yl)-2-(((5-(tert-butyl)-6-chloro-1H-indazol-3-yl)amino)methyl)-4-chloro-1H-imidazole-5-carboxamide] | A (a binding rate of 80% or more is rated “A,”)
C=CC(=O)N1CC(NC(=O)c2c(Cl)nc(CNc3n[nH]c4cc(Cl)c(C(C)(C)C)cc34)n2C2CN(C(C)=O)C2)C1 [Example 108, 1-(1-acetylazetidin-3-yl)-N-(1-acryloylazetidin-3-yl)-2-(((5-(tert-butyl)-6-chloro-1H-indazol-3-yl)amino)methyl)-4-chloro-1H-imidazole-5-carboxamide] | A (a binding rate of 80% or more is rated “A,”)
C=CC(=O)N1CC(NC(=O)c2c(CC)nc(CNc3n[nH]c4cc(Cl)c(C(C)(C)C)cc34)n2C)C1 [Example 31, N-(1-acryloylazetidin-3-yl)-2-(((5-(tert-butyl)-6-chloro-1H-indazol-3-yl)amino)methyl)-4-ethyl-1-methyl-1H-imidazole-5-carboxamide] | D (a binding rate of 20% or more and less than 40% is rated “D,”)
